# Columns and labels:
# [1] = system: paracetamol-induced hepatotoxicity in mice; test: Paracetamol-induced hepatotoxicity in mice, serum biochemical parameters (Example I); type: in vivo, Swiss albino mice; conditions: for ALP / ALT / AST / Total Bilirubin / Total Protein / Triglyceride: 10 mg/kg p.o. + paracetamol 200 mg/kg p.o., 7 days, serum, mean ± SD, n=6
# Description: 3-OH-DBP (Natreon, Inc., New Brunswick, N.J., synthesized to 99% purity w/w) was in the form of a white free flowing powder. 3,8-(OH)2-DBP (Natreon, Inc., New Brunswick, N.J., synthesized to 99% purity w/w) was in the form of a pale green free flowing powder. Paracetamol (acetaminophen) was in the form of a white solid tablet.
# Swiss albino mice of both sexes, weighing approximately 25-30 g, were obtained from National Research Institute of Ayurveda for Drug Development (Govt. of India), Kolkata, and were housed in polypropylene cages at 22±3° C., relative air humidity of 45 to 55%, with 12.00 hr light and dark cycle (lighting on from 6:00 AM to 6:00 PM). Mice were provided standard pellet chow (carbohydrate 65.5%, protein 17.6%, fat 6.6%) and distilled water ad libitum. The mice were acclimatized for one week in the above laboratory conditions, before being used in this experiment. All experiments were conducted between 10.00 hr and 14.00 hr. Principles of laboratory animal care (NIH publication no. 85-23, revised 1985) were followed.
# The animals were randomly assigned into four groups of six animals each, as set out in Table 1. […] After 1 hr of last treatment, blood samples were collected and serum was separated.
# [2] = system: paracetamol-induced hepatotoxicity in mice; test: Synergistic hepatoprotective activity of DBPs against paracetamol-induced hepatotoxicity (Example IV); type: in vivo; conditions: for ACP / ALP / ALT / AST / Total Protein: paracetamol 200 mg/kg, mean ± SEM, n=4
# [3] = system: alcohol-induced hepatotoxicity in mice; test: Synergistic hepatoprotective activity of DBPs against alcohol-induced hepatotoxicity (Example IV); conditions: for ACP / ALP / ALT / AST / Total Protein: alcohol 5 g/kg, mean ± SEM, n=4
# Description: Hepatotoxicity was induced by oral administration of alcohol (ethanol: 5 g/kg) from stock 400 mg/ml twice daily for 15 days.
# 3-OH-DBP and 3,8-(OH)2-DBP were each separately suspended in 0.3% CMC and administered at a dose of 10 mg/kg body weight per orally for 15 days. During the 15 days treatment, body weight, food intake, and water intake were monitored at regular intervals. Following 15 days of treatment physical parameters (relative organ weight) and biochemical parameters (plasma total protein content, ALT, AST, ALP, and ACP) were studied.
# 3-OH-DBP (2 mg/kg body weight, 10 mg/kg body weight);
# 3,8-(OH)2-DBP (10 mg/kg body weight, 50 mg/kg body weight); and
# [4] = female mice, doses 3-OH-DBP 2, 3,8-(OH)2-DBP 10, 1:5 combination 12 mg/kg b.w.
# [5] = female mice, doses 3-OH-DBP 10, 3,8-(OH)2-DBP 50, 1:5 combination 60 mg/kg b.w.
# [6] = male mice, doses 3-OH-DBP 2, 3,8-(OH)2-DBP 10, 1:5 combination 12 mg/kg b.w.
# [7] = male mice, doses 3-OH-DBP 10, 3,8-(OH)2-DBP 50, 1:5 combination 60 mg/kg b.w.
# [8] = female mice, doses 3-OH-DBP 2, 3,8-(OH)2-DBP 10, combination 12 mg/kg b.w.
# [9] = female mice, doses 3-OH-DBP 10, combination 60 mg/kg b.w.
structure (smiles),measurement,setting,value
"O=c1oc2cc(O)ccc2c2ccccc12 [3-OH-DBP, 3-hydroxy-dibenzo-alpha-pyrone]","effect on paracetamol-induced hepatotoxicity (ALT, AST, triglyceride, bilirubin vs paracetamol group)","[1]; 10 mg/kg body weight, male (Table 2) and female (Table 3) mice",significantly attenuated and reversed the paracetamol-induced hepatotoxicity
same,"hepatoprotective activity against paracetamol, comparison of both test compounds","[1]; female mice, 10 mg/kg orally for 7 days, paracetamol 200 mg/kg",almost the same hepatoprotective activity
same,ALP,[1]; female mice,82.04 ± 8.96 IU/L
same,ALT,[1]; female mice,62.32 ± 15.97 IU/L
same,AST,[1]; female mice,62.28 ± 12.46 IU/L
same,Total Bilirubin,[1]; female mice,0.46 ± 0.26 mg/dL
same,Total Protein,[1]; female mice,6.6 ± 0.44 g/dL
same,Triglyceride,[1]; female mice,61.05 ± 1.73 mg/dL
same,"hepatoprotective activity against paracetamol-induced liver damage, in comparison with 3,8-(OH)2-DBP","[1]; male mice, 10 mg/kg orally once daily for 7 days, paracetamol 200 mg/kg",better hepatoprotective activity
same,ALP,[1]; male mice,80.00 ± 5.64 IU/L
same,ALT,[1]; male mice,65.42 ± 23.50 IU/L
same,AST,[1]; male mice,52.23 ± 3.73 IU/L
same,Total Bilirubin,[1]; male mice,0.50 ± 0.23 mg/dL
same,Total Protein,[1]; male mice,6.27 ± 0.14 g/dL
same,Triglyceride,[1]; male mice,97.65 ± 1.96 mg/dL
same,"ACP, difference in values from paracetamol treated mice",[2]; [4],A = (a-b = 4) U/L
same,"ALP, difference in values from paracetamol treated mice",[2]; [4],A = (a-b = 21) IU/L
same,"ALT, difference in values from paracetamol treated mice",[2]; [4],A = (a-b = 15) IU/L
same,"AST, difference in values from paracetamol treated mice",[2]; [4],A = (a-b = 45) IU/L
same,"ACP, difference in values from paracetamol treated mice",[2]; [5],D = (a-e = 7.6) U/L
same,"ALP, difference in values from paracetamol treated mice",[2]; [5],D = (a-e = 26) IU/L
same,"ALT, difference in values from paracetamol treated mice",[2]; [5],D = (a-e = 36) IU/L
same,"AST, difference in values from paracetamol treated mice",[2]; [5],D = (a-e = 71) IU/L
same,ACP,[2]; [4],12 ± 0.71***(b) U/L
same,ALP,[2]; [4],77 ± 11***(b) IU/L
same,ALT,[2]; [4],71 ± 9**(b) ^ IU/L
same,AST,[2]; [4],98 ± 10**(b) IU/L
same,Total Protein,[2]; [4],6.2 ± 0.16 g/dL
same,ACP,[2]; [5],8.4 ± 1.2^#(e) ^ U/L
same,ALP,[2]; [5],72 ± 6.9**(e) IU/L
same,ALT,[2]; [5],"50 ± 9.8*,^#(e) IU/L"
same,AST,[2]; [5],"72 ± 6*,^#(e)^ IU/L"
same,Total Protein,[2]; [5],6.2 ± 0.02 g/dL
same,Relative liver weight,"[2]; male and female mice, paracetamol study of Example IV",significantly (p<0.01) increased
same,"ACP, difference in values from paracetamol treated mice",[2]; [6],A = (a-b = 8.5) U/L
same,"ALP, difference in values from paracetamol treated mice",[2]; [6],A = (a-b = 38.33) IU/L
same,"ALT, difference in values from paracetamol treated mice",[2]; [6],A = (a-b = 7.29) IU/L
same,"AST, difference in values from paracetamol treated mice",[2]; [6],A = (a-b = 30.67) IU/L
same,"ACP, difference in values from paracetamol treated mice",[2]; [7],D = (a-e = 5.44) U/L
same,"ALP, difference in values from paracetamol treated mice",[2]; [7],D = (a-e = 43.75) IU/L
same,"ALT, difference in values from paracetamol treated mice",[2]; [7],D = (a-e = 16.14) IU/L
same,"AST, difference in values from paracetamol treated mice",[2]; [7],D = (a-e = 31.7) IU/L
same,ACP,[2]; [6],"9.69 ± 0.32**,^##(b) U/L"
same,ALP,[2]; [6],"90.17 ± 4.16***,^#(b) IU/L"
same,ALT,[2]; [6],60.34 ± 4.78 (b) IU/L
same,AST,[2]; [6],71.38 ± 4.63^#(b)^ IU/L
same,Total Protein,[2]; [6],7.28 ± 0.14 g/dL
same,ACP,[2]; [7],12.75 ± 1.43 (e) U/L
same,ALP,[2]; [7],"84.75 ± 5.32*,^#(e)^ IU/L"
same,ALT,[2]; [7],51.49 ± 4.49 (e)^ IU/L
same,AST,[2]; [7],70.35 ± 6.21(e)^ IU/L
same,Total Protein,[2]; [7],7.34 ± 0.15 g/dL
same,"hepatoprotective activity (conclusion, Tables 15 and 16)","[2]; paracetamol-induced hepatotoxicity, male and female mice",hepatoprotective activity in a dose dependent manner
same,"hepatoprotective activity (conclusion, Tables 17 and 18)","[3]; alcohol-induced hepatotoxicity, male and female mice",hepatoprotective activity in a dose dependent manner
same,ACP,[3]; [8],19.3 ± 1 (b) U/L
same,ALP,[3]; [8],106.6 ± 8 (b) ^ IU/L
same,ALT,[3]; [8],85.31 ± 7.89 (b) IU/L
same,AST,[3]; [8],54.81 ± 8.13 (b)^ IU/L
same,Total Protein,[3]; [8],7.21 ± 0.36 g/dL
same,ACP,[3]; [9],"12.1±***,^# (e) U/L"
same,ALP,[3]; [9],79 ± 11 (e) IU/L
same,ALT,[3]; [9],57.15 ± 3.46 (e) IU/L
same,AST,[3]; [9],41.11 ± 6.98 (e)^ IU/L
same,Total Protein,[3]; [9],6.53 ± 0.32 g/dL
same,"ACP, difference in values from alcohol treated mice",[3]; [8],A = (a-b = 1.97) U/L
same,"ALP, difference in values from alcohol treated mice",[3]; [8],A = (a-b = 33.4) IU/L
same,"ALT, difference in values from alcohol treated mice",[3]; [8],A = (a-b = 3.53) IU/L
same,"AST, difference in values from alcohol treated mice",[3]; [8],A = (a-b = 14.14) IU/L
same,"ACP, difference in values from alcohol treated mice",[3]; [9],D = (a-e = 8.9) U/L
same,"ALP, difference in values from alcohol treated mice",[3]; [9],D = (a-e = 61) IU/L
same,"ALT, difference in values from alcohol treated mice",[3]; [9],D = (a-e = 31.69) IU/L
same,"AST, difference in values from alcohol treated mice",[3]; [9],D = (a-e = 27.84) IU/L
same,ACP,[3]; [6],13.3 ± 1.03 (b) U/L
same,ALP,[3]; [6],90.2 ± 6.68 (b) IU/L
same,ALT,[3]; [6],74.9 ± 1.66 (b) IU/L
same,AST,[3]; [6],46.5 ± 3.19 (b) IU/L
same,Total Protein,[3]; [6],6.68 ± 0.43 g/dL
same,ACP,[3]; [7],11.6 ± 0.89 (e) U/L
same,ALP,[3]; [7],83.4 ± 4.87 (e) IU/L
same,ALT,[3]; [7],65.4 ± 2.59(e) IU/L
same,AST,[3]; [7],39.9 ± 5.30 (e) IU/L
same,Total Protein,[3]; [7],8.24 ± 0.43 g/dL
same,"ACP, difference in values from alcohol treated mice",[3]; [6],A = (a-b = 5.3) U/L
same,"ALP, difference in values from alcohol treated mice",[3]; [6],A = (a-b = 43.8) IU/L
same,"ALT, difference in values from alcohol treated mice",[3]; [6],A = (a-b = 31.1) IU/L
same,"AST, difference in values from alcohol treated mice",[3]; [6],A = (a-b = 13.5) IU/L
same,"ACP, difference in values from alcohol treated mice",[3]; [7],D = (a-e = 7) U/L
same,"ALP, difference in values from alcohol treated mice",[3]; [7],D = (a-e = 50.6) IU/L
same,"ALT, difference in values from alcohol treated mice",[3]; [7],D = (a-e = 40.6) IU/L
same,"AST, difference in values from alcohol treated mice",[3]; [7],D = (a-e = 20.8) IU/L

# From US20220071952A1, “METHODS OF TREATING AND PREVENTING HEPATOTOXICITY” (Natreon, Inc., priority 2020, published 2022)
